Laboratory results reported in US20070244165A1, “Method for Identifying and Producing Effectors of Calmodulin-Dependent Peptidyl-Prolyl Cis/Trans Isomers” (MAX-PLANK-GESELLSCHAFT ZUR FORDERUNG, priority 2004, published 2007).

Biological target: T1, human CaMAP FKBP38 (Homo sapiens, UniProt Q14318)
T1 construct: made in house; host or cells: E. coli Rosetta cells (pET28a)
Assay: Inhibition of PPIase activity of calmodulin-activated CaMAP FKBP38 (isomer-specific proteolysis with chymotrypsin)
Format: biochemical
Conditions: 0.5 μM FKBP38, 0.5 μM calmodulin, 5 mM calcium chloride; substrate Suc-Ala-Phe-Pro-Phe-NHNp; read-out: IC50 value (inhibitor concentration against detected enzyme activity)
Description: The human CaMAP FKBP38 (synonyms: FKBP8_HUMAN; Swiss-Prot-No.: Q14318) was produced molecular-biologically, as described in Example 9, and stored in aliquots of 100 μl with a protein concentration of 0.83 mg/ml at −80° C. Just before measuring the activity, one of these aliquots was thawed and subsequently stored at 4° C. Furthermore, commercially available calmodulin isolated from bovine brain (Sigma; purchase order no.: P2277), which had been stored at −80° C., was thawed just before measuring the activity and stored at 4° C. Suc-Ala-Phe-Pro-Phe-pNA (Bachem; purchase order no.: L-1400) was used as CaMAP substrate. Alpha-chymotrypsin isolated from bovine pancreas (Merck KG; purchase order no.: 102307) was used as isomer specific auxiliary enzyme. The following working solutions were prepared just before measuring and stored at 4° C.: • solution A: 55 mM HEPES buffer, pH 7.8; 1 mM DTT, 0.5% glycerol • solution B: 20 mg of the peptide substrate dissolved in 1 ml DMSO • solution C: 20 mg chymotrypsin dissolved in 200 μl of solution A • solution D: FKBP38 ([…], diluted in solution A) • solution E: calmodulin (300 μM, diluted in solution A) • solution F: calcium chloride (1 M in solution A)
For the kinetic determination of CaMAP activity, a computer assisted diode-array spectrometer (Hewlett Packard) with a cuvette temperature of 4° C. is used. […]

C=CC[C@@H]1/C=C(\C)C[C@H](C)C[C@H](OC)[C@H]2O[C@@](O)(C(=O)C(=O)N3CCCC[C@H]3C(=O)O[C@H](/C(C)=C/[C@@H]3CC[C@@H](O)[C@H](OC)C3)[C@H](C)[C@@H](O)CC1=O)[C@H](C)C[C@@H]2OC [FK506]
IC50: ~4.3 µM
